From US20050176091A1, “Process for producing kiss-1 peptide” (priority 2002, published 2005)
Where no end group is shown, it is not given here.

Test system: intracellular Ca ion concentration
Experiment: Biological activity assay: intracellular Ca ion concentration-increasing activity (method of Example 3 of WO 99/33976)
Assay type: cell-based
Conditions: compared with a sample purified from human placenta extract

KiSS-1 peptide: Human KiSS-1 peptide (SEQ ID NO: 1) obtained in Example 2 by S-cyanylation and ammonolysis of a fused protein expressed in E. coli (GTSLSPPPESSGSRQQPGLSAPHSRQIPAPQGAVLVQREKDLPNYNWNSFGLRF-NH2)
intracellular Ca ion concentration-increasing activity: equivalent to that of a sample purified from human placenta extract
